Results taken from patent publication US10451610B2, “Prediction of response to PARP inhibitors and combinational therapy targeting C-MET and PARP1” (Board of Regents, The University of Texas System, priority 2014, dated 2019).

Assays:
MDA-MB-231 cells = assay: Cell viability assay; format: cell-based, human; conditions: for sensitivity to PARP inhibitor, clonogenic cell survival and cell viability: c-Met knockdown vs control, cells expressing wild-type PARP1, FIGS. 3H, 13D-E; for sensitivity of cells to PARP inhibitors: MDA-MB-231, c-Met inhibitor with ABT-888 (cell viability) or AG014699 (clonogenic), FIGS. 2D-E, 8D
Procedure: Cells (1,500) were seeded in a 96-well plate and treated with the indicated inhibitors for 72 h. Then cells were incubated in fresh media with 100 μM resazurin for 1 h. Cell viability was measured by fluorescent plate readers at spectra of 560EX nm/590EM nm. Survival curves were expressed as mean±s.d. relative to DMSO-treated control from three independent experiments.
Cell growth was measured by cell viability, clonogenic cell survival, or soft agar anchorage-independent cell growth assay.

[1] = system: phosphorylation of PARP1 at Y907; assay: Western blot of H2O2-induced PARP1 pY907 in MDA-MB-231 cells; format: cell-based, human; conditions: pre-treatment before H2O2; FIG. 3G
Procedure: For immunoprecipitation (IP), lysates of cells treated as described in the text were precleared with 1 μg of mouse or rabbit IgG and 20 μl of protein G-agarose (Roche, Indianapolis, Ind.) for 1 h at 4° C. Pre-cleared lysates were incubated with 1 μg of primary antibodies or anti-IgG antibody at 4° C. overnight with gentle agitation. Lysates were further incubated with protein G-agarose for 30 min at 4° C. Protein G-agarose pellets were collected and washed three times at 4° C. The immunoprecipitants were subjected to sodium dodecyl sulfate-polyacrylamide gel electrophoresis (SDS-PAGE) and western blot analysis as described previously (Du et al., 2014).

[2] = system: PARP1 Y907 phosphorylation; assay: PARP1-pY907 staining of MDA-MB-231 xenograft tumor tissues; format: in vivo, nude mice; conditions: tissues harvested within 24 h after last treatment; FIG. 4O
Procedure: All animal procedures were conducted under the approval of the Institutional Animal Care and Use Committee (IACUC) at MD Anderson Cancer Center (protocol number 10-14-07231). Female nude mice at 6-8 weeks of age were injected in their mammary fat pads with 0.5×10^6 MDA-MB-231 cells, 2×10^6 HCC1937 cells or 5×10^6 MCF-7 cells. Female FBV at 6-8 weeks of age were injected in their mammary fat pads with 0.5×10^6 A1034 cells. H1993 cells were injected subcutaneously into the right flank of female nude mice at 6-8 weeks of age. For MDA-MB-231 and A1034 cells xenograft mouse models, mice were imaged with the IVIS Imaging System 5 days after injection and were divided into treatment groups (n=10). […] After 2 weeks of treatment, tumor sizes were assessed using with the IVIS Imaging System. Mice were injected with 100 μl of D-luciferin (Xenogen; 15 mg/ml in PBS). After 10 min, mice were anesthetized with a mixture of oxygen and isoflurane (Inhalation Anesthesia System; Matrix Medical, Orchard Park, N.Y.) and underwent imaging with the IVIS Imaging System. Imaging parameters were maintained across experiments for comparative analyses. Tumor samples were collected after final treatment and analyzed by immunofluorescence staining. For toxicity assessment, mice were weighed before and after treatment. Blood samples were collected after treatment. […]

[3] = system: γH2AX foci formation in MDA-MB-231 cells; assay: γH2AX foci formation by immunofluorescence confocal microscopy; format: cell-based, human; conditions: c-Met inhibitor together with PARP inhibitor ABT-888; FIG. 3A
Procedure: Briefly, cells grown on chamber slides (Labtek, Scotts Valley, Calif.) were treated as described in the text. After washing with ice-cold PBS, cells were fixed, permeabilized, and incubated with primary antibodies and fluorescence-labeled secondary antibodies. Immunostained cells were examined using a Zeiss LSM 710 laser-scanning microscope (Carl Zeiss, Thornwood, N.Y.) with a 63×/1.4 objective. The ZEN and AxioVison (Carl Zeiss) and Image J software programs (National Institutes of Health, Bethesda, Md.) were used for data analysis. The mean±s.d. of fluorescence intensity of the indicated antibodies from five images in each treatment group was calculated.

patients with TNBC [4] = conditions: phase 2, combined with chemotherapy; cited from earlier work
patients with TNBC [5] = conditions: phase 3; cited from earlier work
[6] = system: patients with wild-type BRCA; conditions: cited from earlier work

C[C@]1(c2nc3c(C(N)=O)cccc3[nH]2)CCCN1 [ABT-888, Veliparib]
sensitivity to PARP inhibitor, clonogenic cell survival and cell viability (MDA-MB-231 cells): more sensitive

CNCc1ccc(-c2[nH]c3cc(F)cc4c3c2CCNC4=O)cc1 [AG014699, Rucaparib]
sensitivity to PARP inhibitor, clonogenic cell survival and cell viability (MDA-MB-231 cells): more sensitive

C[C@@H](Oc1cc(-c2cnn(C3CCNCC3)c2)cnc1N)c1c(Cl)ccc(F)c1Cl [crizotinib]
sensitivity of cells to PARP inhibitors (MDA-MB-231 cells): enhanced the sensitivity of cells to PARP inhibitors | phosphorylation of PARP1 at Y907 induced by H2O2 [1]: abolished phosphorylation of PARP1 at Y907 | PARP1 Y907 phosphorylation in tumor tissue [2]: inhibited | γH2AX foci formation (marker of DNA damage) [3]: enhanced γH2AX foci formation

COc1cc2c(Oc3ccc(NC(=O)C4(C(=O)Nc5ccc(F)cc5)CC4)cc3F)ccnc2cc1OCCCN1CCOCC1 [foretinib]
sensitivity of cells to PARP inhibitors (MDA-MB-231 cells): enhanced the sensitivity of cells to PARP inhibitors | phosphorylation of PARP1 at Y907 induced by H2O2 [1]: abolished phosphorylation of PARP1 at Y907

NC(=O)c1ccc(I)c([N+](=O)[O-])c1 [iniparib]
clinical benefit (patients with TNBC [4]): improved clinical benefits | overall survival or progression free survival benefit (patients with TNBC [5]): did not provide significant overall survival or progression free survival benefit

O=C(c1cc(Cc2n[nH]c(=O)c3ccccc23)ccc1F)N1CCN(C(=O)C2CC2)CC1 [olaparib]
clinical response [6]: demonstrated response
